Calls of active or inactive are those of the source. No cut-off for these calls is given here.
Experiments:
[1] = Toxicity in human HT-29 cells xenografted Balb/c mouse assessed as change in kidney pathology at 10 mg/kg/day, ip administrated for twice a week and measured after 28 days; type: organism-based; settings: in vivo, 672 h, time 28 day
[2] = Toxicity in human HT-29 cells xenografted Balb/c mouse assessed as change in liver pathology at 10 mg/kg/day, ip administrated for twice a week and measured after 28 days; type: organism-based; settings: in vivo, 672 h, time 28 day
HT-29 [3] = test: Inhibition of HER2 in human HT-29 cells xenografted in BALB/c nude mouse assessed as HER2 protein expression level in tumor at 10 mg/kg/day, ip administrated for twice a week and measured after 28 days by Western blotting analysis; type: functional, organism-based; settings: time 28.0 day
HT-29 [4] = test: Inhibition of EGFR in human HT-29 cells xenografted in BALB/c nude mouse assessed as reduction in EGFR protein expression level in tumor at 10 mg/kg/day, ip administrated for twice a week and measured after 28 days by Western blotting analysis; type: functional, organism-based; settings: time 28.0 day
HT-29 [5] = test: Antitumor activity against human HT-29 cells xenografted Balb/c mouse assessed as inhibited tumor growth at 10 mg/kg/day, ip administrated for twice a week and measured after 6 days; type: functional, organism-based; settings: time 6.0 day
HT-29 [6] = test: Inhibition of HER2 in human HT-29 cells xenografted in BALB/c nude mouse assessed as HER2 protein level in tumor at 10 mg/kg/day, ip administrated for twice a week and measured after 28 days by Western blotting analysis; type: functional, organism-based; settings: time 28.0 day
[7] = Toxicity in human HT-29 cells xenografted Balb/c mouse assessed as change in heart pathology at 10 mg/kg/day, ip administrated for twice a week and measured after 28 days; type: organism-based; settings: in vivo, 672 h, time 28 day
[8] = Toxicity in human HT-29 cells xenografted Balb/c mouse assessed as change in body weight at 10 mg/kg/day, ip administrated for twice a week and measured after 6 days; type: organism-based; settings: in vivo, 144 h, time 6 day
HT-29 [9] = test: Inhibition of EGFR in human HT-29 cells xenografted in BALB/c nude mouse assessed as EGFR protein level in tumor at 10 mg/kg/day, ip administrated for twice a week and measured after 28 days by Western blotting analysis; type: functional, organism-based; settings: time 28.0 day
HT-29 [10] = test: Antitumor activity against human HT-29 cells xenografted Balb/c mouse assessed as reduction in tumor cell density at 10 mg/kg/day, ip administrated for twice a week and measured after 28 days by Hematoxylin and Eosin staining based method; type: functional, organism-based; settings: time 28.0 day
[11] = Toxicity in human HT-29 cells xenografted Balb/c mouse assessed as change in spleen pathology at 10 mg/kg/day, ip administrated for twice a week and measured after 28 days; type: organism-based; settings: in vivo, 672 h, time 28 day
HT-29 [12] = test: Antitumor activity against human HT-29 cells xenografted Balb/c mouse assessed as reduction in Ki67 expression level at 10 mg/kg/day, ip administrated for twice a week and measured after 28 days by immunohistochemistry staining method; type: functional, organism-based; settings: time 28.0 day
HT-29 [13] = test: Antitumor activity against human HT-29 cells xenografted Balb/c mouse assessed as reduction in tumor growth at 10 mg/kg/day, ip administrated for twice a week and measured after 28 days; type: functional, organism-based; settings: time 28.0 day
[14] = Toxicity in human HT-29 cells xenografted Balb/c mouse assessed as change in lung pathology at 10 mg/kg/day, ip administrated for twice a week and measured after 28 days; type: organism-based; settings: in vivo, 672 h, time 28 day

Compound: O=c1[nH]cc(F)c(=O)[nH]1 [FLUOROURACIL]
- Activity [1]: Non-Toxic
- Activity [2]: Non-Toxic
- inhibition (HT-29 [3]): inactive
- inhibition (HT-29 [4]): Active
- inhibition (HT-29 [5]): Active
- inhibition (HT-29 [6]): inactive
- Activity [7]: Non-Toxic
- Activity [8]: Non-Toxic
- inhibition (HT-29 [9]): Active
- Activity (HT-29 [10]): Active
- Activity [11]: Non-Toxic
- Activity (HT-29 [12]): Active
- Activity (HT-29 [13]): Active
- Activity [14]: Non-Toxic

— ChEMBL document CHEMBL5390209, “Spinosyn A and Its Derivative Inhibit Colorectal Cancer Cell Growth via the EGFR Pathway” (J Nat Prod, 2023)
